Data as given in US6685617B1, “Inhibitors of α4β1 mediated cell adhesion” (Pharmacia & Upjohn Company, priority 1998, dated 2004).
pIC50: −log10 of the molar value.

How the values were obtained:
[1] = molecular target: T1, α4β1 integrin (Jurkat T-cell adhesion to IL-1 stimulated endothelial cell monolayers) (Homo sapiens, UniProt P05556+P13612); experiment: Jurkat-endothelial cell adhesion assay (Jurkat EC); assay type: cell-based; conditions: Jurkat cells on IL-1 stimulated human umbilical vein endothelial cells; read-out: JK/EC (Jurkat EC Assay IC50 value range)
T1 construct: a T-cell line, Jurkat, known to express the α4β1 integrin; host or cells: Jurkat T-cell line
T1 sequence (P13612 34-1032): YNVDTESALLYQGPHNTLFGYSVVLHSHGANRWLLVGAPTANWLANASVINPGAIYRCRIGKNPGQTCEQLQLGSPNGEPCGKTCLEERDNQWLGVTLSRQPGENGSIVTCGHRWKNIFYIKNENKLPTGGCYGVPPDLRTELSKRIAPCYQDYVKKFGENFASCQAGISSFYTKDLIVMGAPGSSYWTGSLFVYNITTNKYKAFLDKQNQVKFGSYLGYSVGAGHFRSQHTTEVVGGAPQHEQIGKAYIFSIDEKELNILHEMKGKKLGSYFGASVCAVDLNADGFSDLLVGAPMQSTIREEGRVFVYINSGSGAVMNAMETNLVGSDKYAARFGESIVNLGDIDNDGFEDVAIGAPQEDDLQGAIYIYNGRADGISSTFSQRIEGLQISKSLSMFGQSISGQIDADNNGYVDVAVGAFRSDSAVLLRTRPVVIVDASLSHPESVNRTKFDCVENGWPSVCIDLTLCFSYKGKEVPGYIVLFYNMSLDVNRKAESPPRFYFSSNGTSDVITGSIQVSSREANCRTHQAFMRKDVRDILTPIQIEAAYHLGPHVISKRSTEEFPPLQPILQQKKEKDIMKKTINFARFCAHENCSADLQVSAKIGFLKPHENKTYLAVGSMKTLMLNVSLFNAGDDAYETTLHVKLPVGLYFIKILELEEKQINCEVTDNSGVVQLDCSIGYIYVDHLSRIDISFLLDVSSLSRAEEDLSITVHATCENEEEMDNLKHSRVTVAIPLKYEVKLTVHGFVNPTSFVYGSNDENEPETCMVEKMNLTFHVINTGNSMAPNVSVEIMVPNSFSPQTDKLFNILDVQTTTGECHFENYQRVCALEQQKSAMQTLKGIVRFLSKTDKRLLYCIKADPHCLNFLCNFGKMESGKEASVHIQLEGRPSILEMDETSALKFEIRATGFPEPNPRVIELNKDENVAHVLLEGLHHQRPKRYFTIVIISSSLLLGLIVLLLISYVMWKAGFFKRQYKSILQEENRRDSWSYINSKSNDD
T1 sequence (P05556 21-798): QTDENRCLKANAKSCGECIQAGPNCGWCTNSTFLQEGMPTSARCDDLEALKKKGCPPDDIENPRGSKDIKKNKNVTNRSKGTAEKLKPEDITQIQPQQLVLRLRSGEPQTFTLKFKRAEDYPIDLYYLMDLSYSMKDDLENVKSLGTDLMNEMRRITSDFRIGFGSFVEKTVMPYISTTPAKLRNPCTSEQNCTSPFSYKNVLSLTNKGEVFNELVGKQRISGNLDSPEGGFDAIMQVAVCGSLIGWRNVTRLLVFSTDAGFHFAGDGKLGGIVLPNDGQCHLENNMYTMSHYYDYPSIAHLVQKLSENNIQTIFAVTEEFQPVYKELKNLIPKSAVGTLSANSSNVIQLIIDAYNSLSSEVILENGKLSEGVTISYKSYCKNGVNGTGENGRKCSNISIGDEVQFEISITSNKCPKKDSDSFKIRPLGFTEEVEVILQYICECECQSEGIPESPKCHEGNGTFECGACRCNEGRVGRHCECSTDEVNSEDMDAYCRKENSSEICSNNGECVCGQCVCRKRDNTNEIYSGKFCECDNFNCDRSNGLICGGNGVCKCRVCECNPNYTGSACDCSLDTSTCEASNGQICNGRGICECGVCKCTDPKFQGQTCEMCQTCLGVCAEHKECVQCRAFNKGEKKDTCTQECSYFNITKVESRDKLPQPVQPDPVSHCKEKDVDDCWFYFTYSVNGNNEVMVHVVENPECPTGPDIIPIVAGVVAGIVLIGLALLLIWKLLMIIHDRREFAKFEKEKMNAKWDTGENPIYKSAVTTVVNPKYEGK
In short: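 BCECF-AM-labelled Jurkat cells were mixed with compound, generally 100, 20, 5 and 1.25 μM, and added to HUVEC monolayers (passage ≤6) pre-stimulated 4 hr at 37° C with 0.1 ng/ml IL-1. After 5 min on ice and 20 min at 37° C, washed wells were read by fluorescence as % adhesion relative to no compound.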

[2] = molecular target: T2, α4β1 integrin (Jurkat cell adhesion to immobilized CS-1 derived peptide CLHPGEILDVPST) (Homo sapiens, UniProt P05556+P13612); experiment: Jurkat-CS-1 assay; assay type: cell-based; conditions: Jurkat cells on CS-1 peptide coated plates; read-out: JK/CS-1 (Jurkat CS-1 Assay IC50 value range)
T2 construct: 100 μl of Jurkat cells (2.5×10^6 cells/ml) in DMEM plus BSA; host or cells: Jurkat T-cell line
T2 sequence (P13612 34-1032): as the sequence (P13612 34-1032) above
T2 sequence (P05556 21-798): as the sequence (P05556 21-798) above
In short: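 CS-1 peptide was SPDP-crosslinked onto HSA-coated plates and blocked with BSA. Jurkat cells (2.5×10^6 cells/ml) in DMEM/BSA were mixed with compound, generally at 100, 20, 5 and 1.25 μM, and allowed to adhere for 1 hr at 37° C. Bound cells were fixed, stained with toluidine blue and quantified by OD590.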

| pIC50 [1] | pIC50 [2] | Compound |
| --- | --- | --- |
| ≤ 6.00 | 6.12 to 7.30 | O=C(Nc1ccc(C[C@H](NC(=O)[C@@H]2CSCN2C(=O)c2cc(O)c3ccccc3n2)C(=O)O)cc1)c1c(Cl)cccc1Cl [Example 242] |
| 6.00 to 6.60 | 6.12 to 7.30 | O=C(O)c1cc(C(=O)N2CSC[C@H]2C(=O)N[C@@H](Cc2ccc(NC(=O)c3c(Cl)cccc3Cl)cc2)C(=O)O)n[nH]1 [Example 243] |
| 6.00 to 6.60 | 6.12 to 7.30 | O=C(Nc1ccc(C[C@H](NC(=O)[C@@H]2CSCN2C(=O)C2NC(C(=O)O)CS2)C(=O)O)cc1)c1c(Cl)cccc1Cl (stereo partly drawn) [Example 244] |
| ≥ 6.60 | 6.12 to 7.30 | O=C(Nc1ccc(C[C@H](NC(=O)[C@@H]2CSCN2C(=O)C2CCCO2)C(=O)O)cc1)c1c(Cl)cccc1Cl (stereo partly drawn) [Example 245] |
| 6.00 to 6.60 | 6.12 to 7.30 | O=C(Nc1ccc(C[C@H](NC(=O)[C@@H]2CSCN2C(=O)C2CCOC2)C(=O)O)cc1)c1c(Cl)cccc1Cl (stereo partly drawn) [Example 246] |
| 6.00 to 6.60 | 6.12 to 7.30 | O=C(O)/C=C/C(=O)N1CCCC[C@@H]1C(=O)N[C@@H](Cc1ccc(NC(=O)c2c(Cl)cccc2Cl)cc1)C(=O)O [Example 248] |
| 6.00 to 6.60 | 6.12 to 7.30 | COCCC(=O)N1CCCC[C@@H]1C(=O)N[C@@H](Cc1ccc(NC(=O)c2c(Cl)cccc2Cl)cc1)C(=O)O [Example 249] |
| ≥ 6.60 | ≥ 7.30 | O=C(O)c1cccc(C(=O)N2CCCC[C@@H]2C(=O)N[C@@H](Cc2ccc(NC(=O)c3c(Cl)cccc3Cl)cc2)C(=O)O)n1 [Example 251] |
| ≥ 6.60 | ≥ 7.30 | O=C(Nc1ccc(C[C@H](NC(=O)[C@H]2CCCCN2C(=O)c2cccnc2)C(=O)O)cc1)c1c(Cl)cccc1Cl [Example 252] |
| ≥ 6.60 | 6.12 to 7.30 | O=C(Nc1ccc(C[C@H](NC(=O)[C@H]2CCCCN2C(=O)C2CCCO2)C(=O)O)cc1)c1c(Cl)cccc1Cl (stereo partly drawn) [Example 253] |
| 6.00 to 6.60 | 6.12 to 7.30 | O=C(O)CCC(=O)N1CCC[C@@H]1C(=O)N[C@@H](Cc1ccc(NC(=O)c2c(Cl)cccc2Cl)cc1)C(=O)O [Example 254] |
| ≤ 6.00 | 6.12 to 7.30 | O=C(O)/C=C/C(=O)N1CCC[C@@H]1C(=O)N[C@@H](Cc1ccc(NC(=O)c2c(Cl)cccc2Cl)cc1)C(=O)O [Example 255] |
| ≥ 6.60 | ≥ 7.30 | COCCC(=O)N1CCC[C@@H]1C(=O)N[C@@H](Cc1ccc(NC(=O)c2c(Cl)cccc2Cl)cc1)C(=O)O [Example 256] |
| 6.00 to 6.60 | 6.12 to 7.30 | O=C(O)c1cncc(C(=O)N2CCC[C@@H]2C(=O)N[C@@H](Cc2ccc(NC(=O)c3c(Cl)cccc3Cl)cc2)C(=O)O)c1 [Example 257] |
| ≥ 6.60 | ≥ 7.30 | O=C(O)c1cccc(C(=O)N2CCC[C@@H]2C(=O)N[C@@H](Cc2ccc(NC(=O)c3c(Cl)cccc3Cl)cc2)C(=O)O)n1 [Example 258] |
| ≥ 6.60 | 6.12 to 7.30 | O=C(Nc1ccc(C[C@H](NC(=O)[C@H]2CCCN2C(=O)c2cccnc2)C(=O)O)cc1)c1c(Cl)cccc1Cl [Example 259] |
| 6.00 to 6.60 | 6.12 to 7.30 | O=C(Nc1ccc(C[C@H](NC(=O)[C@H]2CCCN2C(=O)C2CCCO2)C(=O)O)cc1)c1c(Cl)cccc1Cl (stereo partly drawn) [Example 260] |
| 6.00 to 6.60 | 6.12 to 7.30 | O=C(O)/C=C/C(=O)N1CSC[C@@H]1C(=O)N[C@@H](Cc1ccc(NC(=O)c2c(Cl)cccc2Cl)cc1)C(=O)O [Example 261] |
| ≥ 6.60 | ≥ 7.30 | COCCC(=O)N1CSC[C@@H]1C(=O)N[C@@H](Cc1ccc(NC(=O)c2c(Cl)cccc2Cl)cc1)C(=O)O [Example 262] |
| 6.00 to 6.60 | 6.12 to 7.30 | O=C(O)c1cncc(C(=O)N2CSC[C@@H]2C(=O)N[C@@H](Cc2ccc(NC(=O)c3c(Cl)cccc3Cl)cc2)C(=O)O)c1 [Example 263] |
| ≥ 6.60 | ≥ 7.30 | O=C(O)c1cccc(C(=O)N2CSC[C@@H]2C(=O)N[C@@H](Cc2ccc(NC(=O)c3c(Cl)cccc3Cl)cc2)C(=O)O)n1 [Example 264] |
| ≥ 6.60 | ≥ 7.30 | O=C(Nc1ccc(C[C@H](NC(=O)[C@H]2CSCN2C(=O)c2cccnc2)C(=O)O)cc1)c1c(Cl)cccc1Cl [Example 265] |
| ≥ 6.60 | ≥ 7.30 | O=C(Nc1ccc(C[C@H](NC(=O)[C@H]2CSCN2C(=O)C2CCCO2)C(=O)O)cc1)c1c(Cl)cccc1Cl (stereo partly drawn) [Example 266] |

Second part, the molecule before the results:

| Compound | pIC50 [1] | pIC50 [2] |
| --- | --- | --- |
| COc1ccc(C(=O)N2CCCC(C(=O)N[C@@H](Cc3ccc(NC(=O)c4c(Cl)cccc4Cl)cc3)C(=O)O)C2)cc1OC (stereo partly drawn) [Example 203] | ≤ 6.00 | 6.12 to 7.30 |
| O=C(O)c1ccccc1C(=O)N1CCCC(C(=O)N[C@@H](Cc2ccc(NC(=O)c3c(Cl)cccc3Cl)cc2)C(=O)O)C1 (stereo partly drawn) [Example 204] | 6.00 to 6.60 | 6.12 to 7.30 |
| O=C(O)c1ccc2cc(C(=O)N3CCCC(C(=O)N[C@@H](Cc4ccc(NC(=O)c5c(Cl)cccc5Cl)cc4)C(=O)O)C3)ccc2c1 (stereo partly drawn) [Example 206] | 6.00 to 6.60 | 6.12 to 7.30 |
| O=C(O)c1cncc(C(=O)N2CCCC(C(=O)N[C@@H](Cc3ccc(NC(=O)c4c(Cl)cccc4Cl)cc3)C(=O)O)C2)c1 (stereo partly drawn) [Example 207] | ≤ 6.00 | 6.12 to 7.30 |
| CC(=O)CCC(=O)N1CCC(C(=O)N[C@@H](Cc2ccc(NC(=O)c3c(Cl)cccc3Cl)cc2)C(=O)O)CC1 [Example 216] | ≤ 6.00 | 6.12 to 7.30 |
| O=C(O)c1cccc(C(=O)N2CCC(C(=O)N[C@@H](Cc3ccc(NC(=O)c4c(Cl)cccc4Cl)cc3)C(=O)O)CC2)c1 [Example 220] | ≤ 6.00 | 6.12 to 7.30 |
| O=C(O)c1cncc(C(=O)N2CCC(C(=O)N[C@@H](Cc3ccc(NC(=O)c4c(Cl)cccc4Cl)cc3)C(=O)O)CC2)c1 [Example 222] | ≤ 6.00 | 6.12 to 7.30 |
| O=C(O)CCC(=O)N1CCC[C@H]1C(=O)N[C@@H](Cc1ccc(NC(=O)c2c(Cl)cccc2Cl)cc1)C(=O)O [Example 224] | ≤ 6.00 | 6.12 to 7.30 |
| O=C(O)CC1(CC(=O)N2CCC[C@H]2C(=O)N[C@@H](Cc2ccc(NC(=O)c3c(Cl)cccc3Cl)cc2)C(=O)O)CCCC1 [Example 225] | ≤ 6.00 | 6.12 to 7.30 |
| CC(C)(CC(=O)O)CC(=O)N1CCC[C@H]1C(=O)N[C@@H](Cc1ccc(NC(=O)c2c(Cl)cccc2Cl)cc1)C(=O)O [Example 226] | ≤ 6.00 | 6.12 to 7.30 |
| O=C(O)/C=C\C(=O)N1CCC[C@H]1C(=O)N[C@@H](Cc1ccc(NC(=O)c2c(Cl)cccc2Cl)cc1)C(=O)O [Example 227] | ≤ 6.00 | 6.12 to 7.30 |
| O=C(O)/C=C/C(=O)N1CCC[C@H]1C(=O)N[C@@H](Cc1ccc(NC(=O)c2c(Cl)cccc2Cl)cc1)C(=O)O [Example 228] | ≤ 6.00 | 6.12 to 7.30 |
| COCCC(=O)N1CCC[C@H]1C(=O)N[C@@H](Cc1ccc(NC(=O)c2c(Cl)cccc2Cl)cc1)C(=O)O [Example 229] | ≤ 6.00 | 6.12 to 7.30 |
| O=C(Nc1ccc(C[C@H](NC(=O)[C@@H]2CCCN2C(=O)C2CCCC(C(=O)O)C2)C(=O)O)cc1)c1c(Cl)cccc1Cl (stereo partly drawn) [Example 230] | ≤ 6.00 | 6.12 to 7.30 |
| CC(=O)CCC(=O)N1CCC[C@H]1C(=O)N[C@@H](Cc1ccc(NC(=O)c2c(Cl)cccc2Cl)cc1)C(=O)O [Example 231] | ≤ 6.00 | 6.12 to 7.30 |
| O=C(O)CNC(=O)N1CCC[C@H]1C(=O)N[C@@H](Cc1ccc(NC(=O)c2c(Cl)cccc2Cl)cc1)C(=O)O [Example 232] | ≤ 6.00 | ≤ 6.12 |
| COc1ccc(C(=O)N2CCC[C@H]2C(=O)N[C@@H](Cc2ccc(NC(=O)c3c(Cl)cccc3Cl)cc2)C(=O)O)cc1OC [Example 233] | ≤ 6.00 | 6.12 to 7.30 |
| O=C(O)c1ccccc1C(=O)N1CCC[C@H]1C(=O)N[C@@H](Cc1ccc(NC(=O)c2c(Cl)cccc2Cl)cc1)C(=O)O [Example 234] | ≤ 6.00 | 6.12 to 7.30 |
| O=C(O)c1cccc(C(=O)N2CCC[C@H]2C(=O)N[C@@H](Cc2ccc(NC(=O)c3c(Cl)cccc3Cl)cc2)C(=O)O)c1 [Example 235] | ≤ 6.00 | 6.12 to 7.30 |
| O=C(O)c1ccc2cc(C(=O)N3CCC[C@H]3C(=O)N[C@@H](Cc3ccc(NC(=O)c4c(Cl)cccc4Cl)cc3)C(=O)O)ccc2c1 [Example 236] | ≤ 6.00 | ≤ 6.12 |
| O=C(O)c1cncc(C(=O)N2CCC[C@H]2C(=O)N[C@@H](Cc2ccc(NC(=O)c3c(Cl)cccc3Cl)cc2)C(=O)O)c1 [Example 237] | ≤ 6.00 | 6.12 to 7.30 |
| O=C(O)c1ccc(NC(=O)N2CCC[C@H]2C(=O)N[C@@H](Cc2ccc(NC(=O)c3c(Cl)cccc3Cl)cc2)C(=O)O)cc1 [Example 238] | ≤ 6.00 | 6.12 to 7.30 |
| O=C(Nc1ccc(C[C@H](NC(=O)[C@@H]2CSCN2C(=O)c2cccnc2)C(=O)O)cc1)c1c(Cl)cccc1Cl [Example 239] | ≤ 6.00 | 6.12 to 7.30 |
| O=C(O)c1cccc(C(=O)N2CSC[C@H]2C(=O)N[C@@H](Cc2ccc(NC(=O)c3c(Cl)cccc3Cl)cc2)C(=O)O)n1 [Example 240] | ≤ 6.00 | 6.12 to 7.30 |
| O=C(O)c1ccc(C(=O)N2CSC[C@H]2C(=O)N[C@@H](Cc2ccc(NC(=O)c3c(Cl)cccc3Cl)cc2)C(=O)O)nc1 [Example 241] | ≤ 6.00 | 6.12 to 7.30 |
